Read-outs that look alike come from different tables or passages of the source.
Columns and labels:
[1] = Membrane permeation, PAMPORE system (hydrophilic pores in the lipid layer); details: hydrophilic pores in the lipid layer (paracellular path); 125 or 250 μM, Tris-buffer pH 7.4, 16 hours
Description: (§1) The combination of these two test systems allows the study of the permeability of a plurality of active ingredients independently of the type of transport which they prefer.

[2] = Membrane permeation, traditional artificial membrane without hydrophilic pores (Standard); details: artificial membrane without hydrophilic pores (transcellular path); 125 or 250 μM, Tris-buffer pH 7.4, 16 hours
Description: as §1

[3] = test system: Herpes simplex 1, herpes simplex 2, varicella zoster; details: cited from earlier work
[4] = test system: Epstein-Barr; details: cited from earlier work
[5] = test system: CMV; details: in achievable concentrations; cited from earlier work
[6] = test system: herpes simplex; details: cited from earlier work
[7] = test system: Varizella zoster; details: cited from earlier work
[8] = AIDS, chemotherapy; i.v. administration; cited from earlier work
[9] = cited from earlier work

5,11,17,23-tetrasulphonic acid calix[4]arenes
Membrane permeation (%) PAMPORE [1]: 100%
Membrane permeation (%) Standard [2]: <15%

Nc1nc2c(ncn2COCCO)c(=O)[nH]1 [aciclovir]
Activity (order of activity against viruses) [3]: Herpes simplex 1>herpes simplex 2>varicella zoster
Activity against Epstein-Barr [4]: only in vitro
Activity against CMV [5]: not active
Effect in recurring mucocutaneous herpes infections ([6]; chron. suppressive therapy): reduces rate of attack
Effect in mucocutaneous herpes simplex infections ([6]; mucocutaneous herpes simplex infections): overall moderate benefit
Effect on post-herpetic neuralgia ([7]; in vivo): no clear effect
Effect on healing in varizella zoster infections ([7]; symptoms, lesions, pain): faster healing
Effect in immune suppressed patients [8]: prevents dissemination, faster healing
t/2 ([9]; anuria (renal insufficiency)): 18 h
t/2 ([9]; normal renal function): 3 h

Hexasulphonic acid calix[6]arenes
Membrane permeation (%) PAMPORE [1]: 100%
Membrane permeation (%) Standard [2]: 0%

Tetramethyltetramethyl resorcin[4]arenes
Membrane permeation (%) PAMPORE [1]: 95%
Membrane permeation (%) Standard [2]: <15%
